Measurements: article PMC3582500 (PLoS ONE, 2013)

Assays:
[1] = molecular target: T1, Laconic (LldR from Escherichia coli between mTFP and Venus) (Escherichia coli, UniProt P0ACL7); assay: FRET ratio mTFP/Venus, purified sensor; format: binding; conditions: 1 mM citrate without lactate; intracellular buffer pH 7.0
T1 construct: variant 04
T1 sequence (P0ACL7 1-258): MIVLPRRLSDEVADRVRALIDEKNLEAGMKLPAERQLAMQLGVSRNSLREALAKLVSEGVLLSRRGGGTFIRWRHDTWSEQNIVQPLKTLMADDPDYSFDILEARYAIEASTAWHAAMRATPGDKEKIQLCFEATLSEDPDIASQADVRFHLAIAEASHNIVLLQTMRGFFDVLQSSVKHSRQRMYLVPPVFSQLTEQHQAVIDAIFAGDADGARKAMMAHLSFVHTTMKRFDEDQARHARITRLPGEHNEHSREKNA

[2] = molecular target: T1, Laconic (LldR from Escherichia coli between mTFP and Venus); assay: FRET ratio mTFP/Venus, purified sensor; format: binding; conditions: 0.25, 1 or 10 mM pyruvate with lactate dose-response; effect by interference with lactate; intracellular buffer pH 7.0

Structure (SMILES) | % increase of FRET ratio at 1 mM [1] [%] | FRET ratio mTFP/Venus, purified sensor [2]
O=C(O)CC(O)(CC(=O)O)C(=O)O [citrate] | 6 | 
CC(=O)C(=O)O [pyruvate] |  | at high concentrations, pyruvate blocked the effect of low lactate
